These results are taken from US12606517B2, “Ibuprofen ester derivative and emulsion preparation thereof” (NANJING HERON PHARMACEUTICAL SCIENCE AND TECHNOLOGY CO., …, priority 2021, dated 2026).

“Also recorded” adds a separate entry of the source.

The nature of data set [1]: Metabolism of the compound in human plasma in vitro. In kind it is in vitro ADME. As to the method: In the present application, the conversion characteristics of Compound N9 and its isomers were evaluated by establishing an in vitro human plasma metabolism model. The test scheme was as follows: • (1) stock solutions (40 mM) of Compounds N9, N9(S) and N9(R) in pure acetonitrile were formulated respectively, and a stock solution (40 mM) of ibuprofen in pure acetonitrile was formulated; • (2) 25 μL stock solution of ibuprofen was mixed with 1 mL of human plasma and vortexed for 30 s. […]

Data set [2] in a line: Pharmacokinetics of PEG400 solution versus emulsion injection in rats (Test Example 5). In kind it is in vivo. The note with it: tail vein, equimolar dose. As to the method:
The PEG solution (3250 μL) of the test compound was pipetted into a 10 mL EP tube, 1750 μL of normal saline was added into the tube with the dispensing gun, and the mixture was vortexed to be uniformly mixed to obtain a dosing solution with a concentration of 1.3 mg/mL and a volume of 5 mL.
Method for preparing the test solution of N9(S) (emulsion injection): an emulsion injection (215 μL) containing N9(S) compound (the content of which was 60 mg/mL) was added into a 15 mL EP tube and 10 mL of normal saline was added into the tube with a dispensing gun to obtain a dosing solution with a concentration of 1.3 mg/mL and […].

Consider `CCOC(=O)OC(CC)OC(=O)[C@@H](C)c1ccc(CC(C)C)cc1` (stereo partly drawn) [N9(S)], for which, in data set [1] (37° C., 120 min), the “Remaining amount of a prodrug compound (%)” value amounted to 45.0 ± 2.1%. Besides, in data set [1] (comparison between isomers), the “hydrolysis / metabolic rate in plasma (in words)” value is recorded as “faster hydrolysis rate in plasma than N9(R); also recorded: faster metabolic rate than the racemate N9”. Also, the “drug-time curve of dexibuprofen in vivo versus arginine solution of dexibuprofen (in words)” value in data set [2] (PEG400 solubilized solution) and in data set [2] (emulsion injection) was “basically coincide” in each case.
